Experimental findings from the OligoGym collection are described below.

Values joined by “and” are separate entries in the source; they are usually repeats but may differ in a detail not shown here. Equal values may be shown once. After the bases stand the sugars from the 5' end (letter, count) and the backbone: PS all phosphorothioate, else s phosphorothioate and o phosphodiester by linkage. Methylation of C is not given here. e = 2'-O-(2-methoxyethyl) (MOE); k = constrained ethyl (cEt); d = 2'-deoxy (DNA)

This data set addresses IRF4. The note with it: ASO.

As for CAGTGACTTGCATCCA (sugars k3 d10 k3, PS), the target mRNA inhibition (MM.1R, 0.0625 µM) is 40% and 20%; the target mRNA inhibition (MM.1R, 0.25 µM) was 43% and 24%; the target mRNA inhibition (MM.1R, 1 µM) is 53% and 38%; the target mRNA inhibition (MM.1R, 4 µM) was 75% and 61%.

Take CGCCATGGCTGATCGC (sugars k3 d10 k3, PS): under “SK-MEL-28, 4 µM”, the target mRNA inhibition was determined as 53%.

As for CACTAAGCTTGATAAA (sugars k3 d10 k3, PS), the target mRNA inhibition (SK-MEL-28, 4 µM) was -11%.

Turning to TTGCTCTTGTTCAAAG (sugars k3 d10 k3, PS), the target mRNA inhibition (SK-MEL-28, 4 µM) was 29%.

With AGTTCATTCCCTAGGT (sugars k3 d10 k3, PS), where the note is “SK-MEL-28, 4 µM”, the target mRNA inhibition was 44%.

With TTACTCTTAGGCACAT (sugars k3 d10 k3, PS), where the note is “MM.1R, 1 µM”, the target mRNA inhibition was 44% and 45%.

Consider GTCCAGCTGGCTCCGC (sugars k3 d10 k3, PS), for which the target mRNA inhibition (SK-MEL-28, 4 µM) was 53%.

As for ATGTATACATCACTGC (sugars k3 d10 k3, PS), the target mRNA inhibition (SK-MEL-28, 4 µM) was found to be 67%.

As to CACACTGCCGTGATCT (sugars k3 d10 k3, PS), the target mRNA inhibition (MM.1R, 1 µM) was 20%.

Consider TCCTAGGTTTCAGTTG (sugars k3 d10 k3, PS), for which the target mRNA inhibition (SK-MEL-28, 4 µM) came to 48%.

For CAATAAAATGTCACGC (sugars k3 d10 k3, PS), the target mRNA inhibition (SK-MEL-28, 4 µM) was 47%.

Turning to AATGAACCCTAAGTTT (sugars k3 d10 k3, PS), the target mRNA inhibition (SK-MEL-28, 4 µM) was 3%.

Take TGGACCCACGAAGATT (sugars k3 d10 k3, PS): the target mRNA inhibition (SK-MEL-28, 4 µM) stood at 38%.

Turning to CATGATAAGGCACTAC (sugars k3 d10 k3, PS), the target mRNA inhibition (MM.1R, 1 µM) was -6%.

With TGGCACGAGGAAGCAT (sugars k3 d10 k3, PS), the target mRNA inhibition (SK-MEL-28, 4 µM) stood at 46%.

Turning to GGATAGATCTGTGGTA (sugars k3 d10 k3, PS), the target mRNA inhibition (SK-MEL-28, 4 µM) is 49%.

On to TAACTAAAACTGCATC (sugars k3 d10 k3, PS), for which, for the setting “SK-MEL-28, 4 µM”, the target mRNA inhibition was determined as 10%.

GTGCTCATGGCTGATA (sugars k3 d10 k3, PS): the target mRNA inhibition (MM.1R, 1 µM) came out at 24%.

Turning to “GGTTGGCTGGTCTTTG (sugars kkdddddddddkekek, PS)”, the target mRNA inhibition was 34% (MM.1R, 0.0625 µM); 44% (MM.1R, 0.25 µM); 67% and 63% (MM.1R, 1 µM); 82% (MM.1R, 4 µM).

For the sequence “TCAGTTTGTGAAGCAT (sugars k3 d9 k3 e1, PS)”, the target mRNA inhibition by setting is: (MM.1R, 0.074 µM) 28%; (MM.1R, 0.222 µM) 22%; (MM.1R, 0.666 µM) 43%; (MM.1R, 1 µM) 58%; (MM.1R, 2 µM) 64%.

Consider TGAGAGTAAACTTGGC (sugars k3 d10 k3, PS), for which the target mRNA inhibition was -3% (MM.1R, 0.0625 µM); 5% (MM.1R, 0.074 µM); 1% (MM.1R, 0.222 µM); 11% (MM.1R, 0.25 µM); 18% (MM.1R, 0.666 µM); 20% (MM.1R, 1 µM). For the same sequence, the target mRNA inhibition (MM.1R, 2 µM) amounted to 32%; the target mRNA inhibition (MM.1R, 4 µM) was 44%; the target mRNA inhibition (SK-MEL-28, 4 µM) came to 65%.

For AAGGGAACAGATAGTT (sugars k3 d10 k3, PS), the target mRNA inhibition (SK-MEL-28, 4 µM) turned out to be 20%.

TGAGACTACACCTACA (sugars k3 d10 k3, PS): the target mRNA inhibition (SK-MEL-28, 4 µM) came out at 19%.

Regarding TAGCATGTATGCATTC (sugars k3 d10 k3, PS), the target mRNA inhibition (SK-MEL-28, 4 µM) was determined as 52%.

With GTTTTTTGACTCAAGA (sugars k3 d10 k3, PS), the target mRNA inhibition (SK-MEL-28, 4 µM) is 67%.

On to TTCCAACCTTTATGAT (sugars k3 d10 k3, PS), for which, for the setting “SK-MEL-28, 4 µM”, the target mRNA inhibition was determined as 7%.

In the case of GCGGGCACAGCCGTCC (sugars k3 d10 k3, PS), the target mRNA inhibition (MM.1R, 1 µM) was -21%.

Consider GAGCACATGTCAACAG (sugars k3 d10 k3, PS), for which the target mRNA inhibition (SK-MEL-28, 4 µM) turned out to be 40%.

In the case of CAGAACTAATGTCCCC (sugars k3 d10 k3, PS), the target mRNA inhibition (SK-MEL-28, 4 µM) is 69%.

Take GCAAAACGCAGAGCCA (sugars k3 d10 k3, PS): the target mRNA inhibition (SK-MEL-28, 4 µM) was 57%.

In the case of “CAGTGATGTCAGGTTT (sugars kddddddddddkekek, PS)”, the target mRNA inhibition (MM.1R, 1 µM) is 46%.

Regarding GTTCAAGACAAGGGTT (sugars k3 d10 k3, PS), the target mRNA inhibition (MM.1R, 1 µM) worked out at 15%.

Turning to CTTGGTTCTCTATAGT (sugars k3 d10 k3, PS), under “MM.1R, 1 µM”, the target mRNA inhibition amounted to 27%.

Regarding CTGAGAGCCGAGGCCT (sugars k3 d10 k3, PS), the target mRNA inhibition (SK-MEL-28, 4 µM) is -17%.

In the case of GTCACGCAATGGCAAA (sugars k3 d10 k3, PS), the target mRNA inhibition (MM.1R, 1 µM) is -2%.

As to AACCAGCCCTTGCTGC (sugars k3 d10 k3, PS), the target mRNA inhibition (SK-MEL-28, 4 µM) worked out at 21%.

Regarding “TGTTACCGATGCTTCA (sugars k2 d9 e3 k2, PS)”, the target mRNA inhibition (MM.1R, 1 µM) was 31% and 39%.

Regarding TCCTTTCCTACAGATC (sugars k3 d10 k3, PS), the target mRNA inhibition (SK-MEL-28, 4 µM) amounted to 33%.

Regarding CTCCACTGTTAAAGCA (sugars k3 d10 k3, PS), for the setting “SK-MEL-28, 4 µM”, the target mRNA inhibition amounted to 52%.

With GTGCAAGCCTCATTCA (sugars k3 d10 k3, PS), for the setting “MM.1R, 1 µM”, the target mRNA inhibition worked out at 19%.

As for GCACAGTCTTTTCGCA (sugars k3 d10 k3, PS), where the note is “SK-MEL-28, 4 µM”, the target mRNA inhibition was found to be 20%.

For GATAGCTGAGCTGATC (sugars k3 d10 k3, PS), for the setting “SK-MEL-28, 4 µM”, the target mRNA inhibition came to 32%.

Take GCAGTTCTTAATATCA (sugars k3 d10 k3, PS): the target mRNA inhibition (SK-MEL-28, 4 µM) was 60%.

As for CGCAATCTTCTGCTGA (sugars k3 d10 k3, PS), the target mRNA inhibition (SK-MEL-28, 4 µM) amounted to 64%.

For the sequence GATCATCAATGATGGC (sugars k3 d10 k3, PS), the target mRNA inhibition (SK-MEL-28, 4 µM) worked out at 63%.

Regarding “CAAGCAGTGATGTCAG (sugars kkdddddddddekeke, PS)”, the target mRNA inhibition (MM.1R, 1 µM) is 26% and 34%.

For the sequence “TGATGTGATAGCTGAG (sugars kdddddddddkekeke, PS)”, the target mRNA inhibition (MM.1R, 1 µM) was 47%.

“ACACTTTTAGAGAGGA (sugars k2 d9 e3 k2, PS)”: where the note is “MM.1R, 1 µM”, the target mRNA inhibition turned out to be 21%.

For the sequence GGCTCCTACATGTTTG (sugars k3 d10 k3, PS), the target mRNA inhibition (SK-MEL-28, 4 µM) is -46%.

Consider “ACTGTTACCGATGCTT (sugars k2 d9 e3 k2, PS)”, for which the target mRNA inhibition (MM.1R, 1 µM) was 27% and 34%.

Take CTCTTGTGAGGCAAAG (sugars k3 d10 k3, PS): the target mRNA inhibition (SK-MEL-28, 4 µM) stood at 48%.

Take “AGCTTGATAAAGGCTG (sugars kdddddddddkekeke, PS)”: under “MM.1R, 1 µM”, the target mRNA inhibition was found to be 2%.

“GTTGTAAATGAGTCGG (sugars k2 d9 e3 k2, PS)”: the target mRNA inhibition is, setting by setting: (H929, 0.00067 µM) 6%; (H929, 0.002 µM) 21%; (H929, 0.00667 µM) 45%; (H929, 0.02 µM) 57%; (H929, 0.04 µM) 13%; (KMS11, 0.2 µM) 50% and 44%. The target mRNA inhibition amounted to 26% (MM.1R, 0.074 µM); 53% (MM.1R, 0.222 µM); 76% (MM.1R, 0.666 µM); 82% (MM.1R, 1 µM); 93% (MM.1R, 2 µM).

On to GGTCTGGAAACTCCTC (sugars k3 d10 k3, PS), for which the target mRNA inhibition (MM.1R, 0.074 µM) was determined as 13%; the target mRNA inhibition (MM.1R, 0.222 µM) stood at 14%; the target mRNA inhibition (MM.1R, 0.666 µM) came out at 12%; the target mRNA inhibition (MM.1R, 2 µM) came out at 17%; the target mRNA inhibition (SK-MEL-28, 0.185 µM) was 1%; the target mRNA inhibition (SK-MEL-28, 4 µM) worked out at 52%. The target mRNA inhibition (SK-MEL-28, 5 µM) worked out at 63% and the target mRNA inhibition (SK-MEL-28, 15 µM) is 86%.

GCCAATCAGATGTCAC (sugars k3 d10 k3, PS): for the setting “SK-MEL-28, 4 µM”, the target mRNA inhibition turned out to be 46%.

With “ACCTCAGTTTGTGAAG (sugars k3 d9 k3 e1, PS)”, the target mRNA inhibition (MM.1R, 1 µM) is 10%.

Regarding GGCGAGTGGCGGGTAG (sugars k3 d10 k3, PS), the target mRNA inhibition (SK-MEL-28, 4 µM) came out at 8%.

Take GGACATTGGTACGGGA (sugars k3 d10 k3, PS): under “SK-MEL-28, 4 µM”, the target mRNA inhibition stood at 50%.

“ACACTTTTAGAGAGGA (sugars kkdddddddddekeke, PS)”: the target mRNA inhibition (MM.1R, 1 µM) was 41%.

Take CAACAGCACTGTCCAC (sugars k3 d10 k3, PS): the target mRNA inhibition (SK-MEL-28, 4 µM) was determined as 43%.

Turning to TGACAGCCGAAGCATT (sugars k3 d10 k3, PS), the target mRNA inhibition (SK-MEL-28, 4 µM) came out at 38%.

With “ACCTCAGTTTGTGAAG (sugars kddddddddddkekek, PS)”, for the setting “MM.1R, 1 µM”, the target mRNA inhibition worked out at 18%.

For ACTCAGCAAGTGTCTT (sugars k3 d10 k3, PS), the target mRNA inhibition (SK-MEL-28, 4 µM) was 47%.

Consider ACTTAAGCTAAACTCC (sugars k3 d10 k3, PS), for which the target mRNA inhibition (SK-MEL-28, 4 µM) was determined as 21%.

For “CAGTGATGTCAGGTTT (sugars kkddddddddddkeke, PS)”, the target mRNA inhibition (MM.1R, 1 µM) came to 41%.

In the case of “CAGTTGTAAATGAGTC (sugars kkdddddddddkekek, PS)”, the target mRNA inhibition (H929, 0.00067 µM) was 22%; the target mRNA inhibition (H929, 0.002 µM) was 41%; the target mRNA inhibition (H929, 0.00667 µM) is 67%; the target mRNA inhibition (H929, 0.02 µM) worked out at 74%; the target mRNA inhibition (H929, 0.04 µM) came out at 40%; the target mRNA inhibition (KMS11, 0.2 µM) is 83% and 93%. Further, the target mRNA inhibition was determined as 28% (MM.1R, 0.074 µM); 55% (MM.1R, 0.222 µM); 78% (MM.1R, 0.666 µM); 81% (MM.1R, 1 µM); 91% (MM.1R, 2 µM).

For AAGAATGGCGCATAGG (sugars k3 d10 k3, PS), the target mRNA inhibition (MM.1R, 0.0625 µM) is -1% and 19%; the target mRNA inhibition (MM.1R, 0.25 µM) was 12% and 27%; the target mRNA inhibition (MM.1R, 1 µM) was 28% and 42%; the target mRNA inhibition (MM.1R, 4 µM) is 55% and 66%; the target mRNA inhibition (SK-MEL-28, 4 µM) stood at 81%.

With AAGCACTGGCATCGAG (sugars k3 d10 k3, PS), the target mRNA inhibition (SK-MEL-28, 4 µM) is 27%.

On to TACTCTTAGGCACATC (sugars k3 d10 k3, PS), for which the target mRNA inhibition (SK-MEL-28, 4 µM) is 59%.

On to GTGCAGACCTGAATAG (sugars k3 d10 k3, PS), for which the target mRNA inhibition (SK-MEL-28, 4 µM) came out at 14%.

For the sequence ATACATTTCTTTTACG (sugars k3 d10 k3, PS), for the setting “SK-MEL-28, 4 µM”, the target mRNA inhibition amounted to 22%.

As for CTGAGAGTAAACTTGG (sugars k3 d10 k3, PS), the target mRNA inhibition (MM.1R, 1 µM) is -1%.
